{"source": "paper PMC11352961", "about": "“Peptide dendrimers transfecting CRISPR/Cas9 plasmid DNA: optimization and mechanism” (RSC Chemical Biology, 2024)", "key": {"HEK293 cells": {"test_system": "HEK293 cells", "assay": "Cell viability by PrestoBlue assay after transfection, HEK cells", "assay_type": "cell-based", "details": "4 h"}, "HeLa cells": {"test_system": "HeLa cells", "assay": "Cell viability by PrestoBlue assay after transfection, HeLa cells", "assay_type": "cell-based", "details": "4 h"}}, "note": "Bridge positions count the residues as written; N and C are the ends. Square brackets hold non-standard residues; d marks the D form. Side chains are listed from the residue outwards. Peptide text beside a SMILES is read from it. I, II: the chains in the order shown. * marks the point of attachment. Stearoyl = CCCCCCCCCCCCCCCCCC(=O)*", "data": [{"smiles": "CCCCCCCCCCCCCCCCCC(=O)NCCCC[C@H](NC(=O)[C@H](CCCCNC(=O)[C@H](CC(C)C)NC(=O)[C@H](CCCNC(=N)N)NC(=O)[C@H](CCCCNC(=O)[C@H](CC(C)C)NC(=O)[C@H](CCCNC(=N)N)NC(=O)[C@H](CCCCNC(=O)[C@H](CC(C)C)NC(=O)[C@@H](N)CCCNC(=N)N)NC(=O)[C@H](CC(C)C)NC(=O)[C@@H](N)CCCNC(=N)N)NC(=O)[C@H](CC(C)C)NC(=O)[C@H](CCCNC(=N)N)NC(=O)[C@H](CCCCNC(=O)[C@H](CC(C)C)NC(=O)[C@@H](N)CCCNC(=N)N)NC(=O)[C@H](CC(C)C)NC(=O)[C@@H](N)CCCNC(=N)N)NC(=O)[C@H](CC(C)C)NC(=O)[C@H](CCCNC(=N)N)NC(=O)[C@H](CCCCNC(=O)[C@H](CC(C)C)NC(=O)[C@H](CCCNC(=N)N)NC(=O)[C@H](CCCCNC(=O)[C@H](CC(C)C)NC(=O)[C@@H](N)CCCNC(=N)N)NC(=O)[C@H](CC(C)C)NC(=O)[C@@H](N)CCCNC(=N)N)NC(=O)[C@H](CC(C)C)NC(=O)[C@H](CCCNC(=N)N)NC(=O)[C@H](CCCCNC(=O)[C@H](CC(C)C)NC(=O)[C@@H](N)CCCNC(=N)N)NC(=O)[C@H](CC(C)C)NC(=O)[C@@H](N)CCCNC(=N)N)C(=O)N[C@@H](CS)C(N)=O", "note": "[Z24] (I: H-RLK([Leu-Arg])RLKRLKK(Stearoyl)C-NH2 / II: H-RLK([Leu-Arg])RLKRL / III: H-RLK([Leu-Arg])RL / IV: H-RLK([Leu-Arg])RL; amide I:6-IV:C, I:9-II:C, II:6-III:C)", "values": [{"measurement": "% viability HEK cells", "setting": "HEK293 cells", "result": "86 ± 1", "unit": "%"}, {"measurement": "% viability HeLa cells", "setting": "HeLa cells", "result": "91 ± 6", "unit": "%"}]}, {"smiles": "CCCCCCCCCCCCCCCCCC(=O)NCCCC[C@@H](NC(=O)[C@@H](CCCCNC(=O)[C@@H](CC(C)C)NC(=O)[C@@H](CCCNC(=N)N)NC(=O)[C@@H](CCCCNC(=O)[C@@H](CC(C)C)NC(=O)[C@@H](CCCNC(=N)N)NC(=O)[C@@H](CCCCNC(=O)[C@@H](CC(C)C)NC(=O)[C@H](N)CCCNC(=N)N)NC(=O)[C@@H](CC(C)C)NC(=O)[C@H](N)CCCNC(=N)N)NC(=O)[C@@H](CC(C)C)NC(=O)[C@@H](CCCNC(=N)N)NC(=O)[C@@H](CCCCNC(=O)[C@@H](CC(C)C)NC(=O)[C@H](N)CCCNC(=N)N)NC(=O)[C@@H](CC(C)C)NC(=O)[C@H](N)CCCNC(=N)N)NC(=O)[C@@H](CC(C)C)NC(=O)[C@@H](CCCNC(=N)N)NC(=O)[C@@H](CCCCNC(=O)[C@@H](CC(C)C)NC(=O)[C@@H](CCCNC(=N)N)NC(=O)[C@@H](CCCCNC(=O)[C@@H](CC(C)C)NC(=O)[C@H](N)CCCNC(=N)N)NC(=O)[C@@H](CC(C)C)NC(=O)[C@H](N)CCCNC(=N)N)NC(=O)[C@@H](CC(C)C)NC(=O)[C@@H](CCCNC(=N)N)NC(=O)[C@@H](CCCCNC(=O)[C@@H](CC(C)C)NC(=O)[C@H](N)CCCNC(=N)N)NC(=O)[C@@H](CC(C)C)NC(=O)[C@H](N)CCCNC(=N)N)C(=O)N[C@H](CS)C(N)=O", "note": "[Z22] (I: H-[dR][dL][dK]([dL-dR])[dR][dL][dK][dR][dL][dK][dK](Stearoyl)[dC]-NH2 / II: H-[dR][dL][dK]([dL-dR])[dR][dL][dK][dR][dL] / III: H-[dR][dL][dK]([dL-dR])[dR][dL] / IV: H-[dR][dL][dK]([dL-dR])[dR][dL]; amide I:6-IV:C, I:9-II:C, II:6-III:C)", "values": [{"measurement": "% viability HEK cells", "setting": "HEK293 cells", "result": "64 ± 4", "unit": "%"}, {"measurement": "% viability HeLa cells", "setting": "HeLa cells", "result": "92 ± 7", "unit": "%"}]}, {"smiles": "CCCCCCCCCCCCCCCCCC(=O)NCCCC[C@@H](NC(=O)[C@@H](CCCCNC(=O)[C@@H](CC(C)C)NC(=O)[C@@H](CC(C)C)NC(=O)[C@@H](CCCCNC(=O)[C@@H](CC(C)C)NC(=O)[C@@H](CCCCN)NC(=O)[C@@H](CCCCNC(=O)[C@@H](CC(C)C)NC(=O)[C@H](N)CCCCN)NC(=O)[C@@H](CC(C)C)NC(=O)[C@H](N)CCCCN)NC(=O)[C@@H](CC(C)C)NC(=O)[C@@H](CCCCN)NC(=O)[C@@H](CCCCNC(=O)[C@@H](CC(C)C)NC(=O)[C@H](N)CCCCN)NC(=O)[C@@H](CC(C)C)NC(=O)[C@H](N)CCCCN)NC(=O)[C@@H](CC(C)C)NC(=O)[C@@H](CC(C)C)NC(=O)[C@@H](CCCCNC(=O)[C@@H](CC(C)C)NC(=O)[C@@H](CCCCN)NC(=O)[C@@H](CCCCNC(=O)[C@@H](CC(C)C)NC(=O)[C@H](N)CCCCN)NC(=O)[C@@H](CC(C)C)NC(=O)[C@H](N)CCCCN)NC(=O)[C@@H](CC(C)C)NC(=O)[C@@H](CCCCN)NC(=O)[C@@H](CCCCNC(=O)[C@@H](CC(C)C)NC(=O)[C@H](N)CCCCN)NC(=O)[C@@H](CC(C)C)NC(=O)[C@H](N)CCCCN)C(N)=O", "note": "[Z31] (I: H-[dK][dL][dK]([dL-dK])[dK][dL][dK][dL][dL][dK][dK](Stearoyl)-NH2 / II: H-[dK][dL][dK]([dL-dK])[dK][dL][dK][dL][dL] / III: H-[dK][dL][dK]([dL-dK])[dK][dL] / IV: H-[dK][dL][dK]([dL-dK])[dK][dL]; amide I:6-IV:C, I:9-II:C, II:6-III:C)", "values": [{"measurement": "% viability HEK cells", "setting": "HEK293 cells", "result": "96 ± 2", "unit": "%"}, {"measurement": "% viability HeLa cells", "setting": "HeLa cells", "result": "91 ± 6", "unit": "%"}]}, {"smiles": "CC(C)C[C@@H](NC(=O)[C@@H](CC(C)C)NC(=O)[C@@H](CC(C)C)NC(=O)[C@@H](CC(C)C)NC(=O)[C@@H](CC(C)C)NC(=O)[C@@H](CCCCNC(=O)[C@@H](CC(C)C)NC(=O)[C@@H](CCCCN)NC(=O)[C@@H](CCCCNC(=O)[C@@H](CC(C)C)NC(=O)[C@@H](CCCCN)NC(=O)[C@@H](CCCCNC(=O)[C@@H](CC(C)C)NC(=O)[C@H](N)CCCCN)NC(=O)[C@@H](CC(C)C)NC(=O)[C@H](N)CCCCN)NC(=O)[C@@H](CC(C)C)NC(=O)[C@@H](CCCCN)NC(=O)[C@@H](CCCCNC(=O)[C@@H](CC(C)C)NC(=O)[C@H](N)CCCCN)NC(=O)[C@@H](CC(C)C)NC(=O)[C@H](N)CCCCN)NC(=O)[C@@H](CC(C)C)NC(=O)[C@@H](CCCCN)NC(=O)[C@@H](CCCCNC(=O)[C@@H](CC(C)C)NC(=O)[C@@H](CCCCN)NC(=O)[C@@H](CCCCNC(=O)[C@@H](CC(C)C)NC(=O)[C@H](N)CCCCN)NC(=O)[C@@H](CC(C)C)NC(=O)[C@H](N)CCCCN)NC(=O)[C@@H](CC(C)C)NC(=O)[C@@H](CCCCN)NC(=O)[C@@H](CCCCNC(=O)[C@@H](CC(C)C)NC(=O)[C@H](N)CCCCN)NC(=O)[C@@H](CC(C)C)NC(=O)[C@H](N)CCCCN)C(N)=O", "note": "[Z28] (I: H-[dK][dL][dK]([dL-dK])[dK][dL][dK][dK][dL][dK][dL][dL][dL][dL][dL]-NH2 / II: H-[dK][dL][dK]([dL-dK])[dK][dL][dK][dK][dL] / III: H-[dK][dL][dK]([dL-dK])[dK][dL] / IV: H-[dK][dL][dK]([dL-dK])[dK][dL]; amide I:6-IV:C, I:9-II:C, II:6-III:C)", "values": [{"measurement": "% viability HEK cells", "setting": "HEK293 cells", "result": "103 ± 0.2", "unit": "%"}, {"measurement": "% viability HeLa cells", "setting": "HeLa cells", "result": "101 ± 7", "unit": "%"}]}, {"smiles": "CCCCCCCCCCCCCCCCCC(=O)NCCCC[C@H](NC(=O)[C@H](CCCCNC(=O)[C@H](CC(C)C)NC(=O)[C@H](CCCCN)NC(=O)[C@H](CCCCNC(=O)[C@H](CC(C)C)NC(=O)[C@H](CCCCN)NC(=O)[C@H](CCCCNC(=O)[C@H](CC(C)C)NC(=O)[C@@H](N)CCCCN)NC(=O)[C@H](CC(C)C)NC(=O)[C@@H](N)CCCCN)NC(=O)[C@H](CC(C)C)NC(=O)[C@H](CCCCN)NC(=O)[C@H](CCCCNC(=O)[C@H](CC(C)C)NC(=O)[C@@H](N)CCCCN)NC(=O)[C@H](CC(C)C)NC(=O)[C@@H](N)CCCCN)NC(=O)[C@H](CC(C)C)NC(=O)[C@H](CCCCN)NC(=O)[C@H](CCCCNC(=O)[C@H](CC(C)C)NC(=O)[C@H](CCCCN)NC(=O)[C@H](CCCCNC(=O)[C@H](CC(C)C)NC(=O)[C@@H](N)CCCCN)NC(=O)[C@H](CC(C)C)NC(=O)[C@@H](N)CCCCN)NC(=O)[C@H](CC(C)C)NC(=O)[C@H](CCCCN)NC(=O)[C@H](CCCCNC(=O)[C@H](CC(C)C)NC(=O)[C@@H](N)CCCCN)NC(=O)[C@H](CC(C)C)NC(=O)[C@@H](N)CCCCN)C(=O)N[C@@H](CS)C(N)=O", "note": "[Z12] (I: H-KLK([Leu-Lys])KLKKLKK(Stearoyl)C-NH2 / II: H-KLK([Leu-Lys])KLKKL / III: H-KLK([Leu-Lys])KL / IV: H-KLK([Leu-Lys])KL; amide I:6-IV:C, I:9-II:C, II:6-III:C)", "values": [{"measurement": "% viability HEK cells", "setting": "HEK293 cells", "result": "80 ± 5", "unit": "%"}, {"measurement": "% viability HeLa cells", "setting": "HeLa cells", "result": "112 ± 10", "unit": "%"}]}, {"smiles": "CCCCCCCCCCCCCCCCCC(=O)NCCCC[C@H](NC(=O)[C@H](CCCCNC(=O)CCCCCCCCCCCCCCCCC)NC(=O)[C@H](CCCCNC(=O)[C@H](CC(C)C)NC(=O)[C@H](CCCCN)NC(=O)[C@H](CCCCNC(=O)[C@H](CC(C)C)NC(=O)[C@H](CCCCN)NC(=O)[C@H](CCCCNC(=O)[C@H](CC(C)C)NC(=O)[C@@H](N)CCCCN)NC(=O)[C@H](CC(C)C)NC(=O)[C@@H](N)CCCCN)NC(=O)[C@H](CC(C)C)NC(=O)[C@H](CCCCN)NC(=O)[C@H](CCCCNC(=O)[C@H](CC(C)C)NC(=O)[C@@H](N)CCCCN)NC(=O)[C@H](CC(C)C)NC(=O)[C@@H](N)CCCCN)NC(=O)[C@H](CC(C)C)NC(=O)[C@H](CCCCN)NC(=O)[C@H](CCCCNC(=O)[C@H](CC(C)C)NC(=O)[C@H](CCCCN)NC(=O)[C@H](CCCCNC(=O)[C@H](CC(C)C)NC(=O)[C@@H](N)CCCCN)NC(=O)[C@H](CC(C)C)NC(=O)[C@@H](N)CCCCN)NC(=O)[C@H](CC(C)C)NC(=O)[C@H](CCCCN)NC(=O)[C@H](CCCCNC(=O)[C@H](CC(C)C)NC(=O)[C@@H](N)CCCCN)NC(=O)[C@H](CC(C)C)NC(=O)[C@@H](N)CCCCN)C(N)=O", "note": "[Z2] (I: H-KLK([Leu-Lys])KLKKLKK(Stearoyl)K(Stearoyl)-NH2 / II: H-KLK([Leu-Lys])KLKKL / III: H-KLK([Leu-Lys])KL / IV: H-KLK([Leu-Lys])KL; amide I:6-IV:C, I:9-II:C, II:6-III:C)", "values": [{"measurement": "% viability HEK cells", "setting": "HEK293 cells", "result": "79 ± 11", "unit": "%"}, {"measurement": "% viability HeLa cells", "setting": "HeLa cells", "result": "47 ± 3", "unit": "%"}]}]}
